# Test results: US20170351014A1, “NEAR-INFRARED ABSORPTION COMPOSITION, CURED FILM, NEAR-INFRARED ABSORPTION FILTER, SOLID-STATE IMAGING DEVICE, AND INFRARED SENSOR” (FUJIFILM Corporation, priority 2015, published 2017)
# Experiments:
# Type in all cases: physicochemical
# [1] = Maximum absorption wavelength and absorbance ratio of film formed from near-infrared absorption composition; conditions: film on glass
# Protocol: A near-infrared absorption composition was prepared by mixing according to the following composition.
# Each composition was applied to a glass substrate (1737 manufactured by Corning Inc.) using a spin coater, and a heating treatment was performed thereon for 120 seconds using a hot plate at 120° C.
# (§1) A maximum absorption wavelength of each film and an absorbance ratio as a value obtained by dividing an absorbance at a wavelength of 555 nm by an absorbance at the maximum absorption wavelength were measured using a spectrophotometer U-4100 (manufactured by Hitachi High-Technologies Corporation).
# [2] = Solubility of compound to propylene glycol monomethyl ether acetate (PGMEA); conditions: PGMEA at 25° C.
# Protocol: The solubility of each compound to propylene glycol monomethyl ether acetate (PGMEA) at 25° C. was evaluated based on the following standards.
# A: The solubility of the compound to PGMEA at 25° C. is 2 mass % or greater.
# [3] = Near-infrared shieldability evaluation of cured film; conditions: cured film 1.0 μm, Resin 1, transmittance at 785 nm
# Protocol: (§2) A near-infrared absorption composition was prepared by mixing according to the following composition. The solid content of the composition was 31 mass %, and the content of the near-infrared absorption substance with respect to the total solid content of the composition was 7.5 mass %.
# (§3) Each composition was applied to a glass substrate (1737 manufactured by Corning Inc.) using a spin coater such that a film thickness after drying was 1.0 μm, and a heating treatment (pre-baking) was performed thereon for 120 seconds using a hot plate at 100° C.
# (§4) Next, entire surface exposure was performed at 500 mJ/cm2 using an i-ray stepper exposure device FPA-3000i5+(manufactured by Canon Inc.). Next, paddle development was performed for 60 seconds at 23° C. using a developing machine (CD-2060, manufactured by FUJIFILM Electronics Materials Co., Ltd.), and a rinsing treatment was performed with pure water. Then, spray drying was performed thereon. Using a hot plate at 200° C., a heating treatment (post-baking) was performed for 300 seconds to obtain a cured film.
# The transmittance of each cured film at the maximum absorption wavelength was measured using a spectrophotometer U-4100 (manufactured by Hitachi High-Technologies Corporation). The near-infrared shieldability was evaluated based on the following standards.
# A: Transmittance at 785 nm≦10%
# D: 40%<Transmittance at 785 nm
# [4] = Visible transparency evaluation of cured film; conditions: cured film 1.0 μm, Resin 1, minimum transmittance at 500 to 600 nm
# Protocol: as §2, §3, §4
# The transmittance of each cured film at a wavelength of 500 to 600 nm was measured using a spectrophotometer U-4100 (manufactured by Hitachi High-Technologies Corporation). The visible transparency was evaluated based on the following standards.
# A: 80% 5 Minimum value of transmittance at wavelength of 500 to 600 nm
# B: 70%: Minimum value of transmittance at wavelength of 500 to 600 nm<80%
# C: 60%: Minimum value of transmittance at wavelength of 500 to 600 nm<70%
# D: Minimum value of transmittance at wavelength of 500 to 600 nm<60%
# [5] = Maximum absorption wavelength and absorbance ratio of cured film; conditions: cured film 1.0 μm, Resin 1
# Protocol: as §1, §2, §3, §4
# [6] = Resin A (benzyl methacrylate/methyl methacrylate copolymer), 120° C. 120 seconds
SMILES,Absorbance Ratio (555 nm/λmax) ([1]; Resin A),"Maximum Absorption Wavelength [1, 6] [nm]",Solubility [2],Solubility (in words) [2],Near-Infrared Shieldability [3],Visible Transparency [4],Absorbance Ratio (555 nm/λmax) [5],Maximum Absorption Wavelength [5] [nm],Absorbance Ratio (555 nm/λmax) ([1]; Resin B (polycaprolactone)),Maximum Absorption Wavelength ([1]; Resin B (polycaprolactone)) [nm]
CCCCCCCCOc1ccc(-c2c3/c(=C(\C#N)c4nc(C)cc(C)n4)n(B(c4ccccc4)c4ccccc4)c(-c4ccc(OCCCCCCCC)cc4)c3/c(=C(\C#N)c3nc(C)cc(C)n3)n2B(c2ccccc2)c2ccccc2)cc1 [Compound A-12],0.10,763,B (The solubility of the compound to PGMEA at 25 °C is 0.5 mass % to less than 2 mass %.),excellent solubility,B (10%<Transmittance at 785 nm≦25%),B (70%: Minimum value of transmittance at wavelength of 500 to 600 nm<80%),0.10,762,–,–
CCCCCCCCOc1ccc(-c2c3/c(=C(\C#N)c4cc5cc(C(C)(C)C)ccc5cn4)n(B(c4ccccc4)c4ccccc4)c(-c4ccc(OCCCCCCCC)cc4)c3/c(=C(\C#N)c3cc4cc(C(C)(C)C)ccc4cn3)n2B(c2ccccc2)c2ccccc2)cc1 [Compound A-100],0.11,860,C (The solubility of the compound to PGMEA at 25 °C is less than 0.5 mass %.),–,D (40%<Transmittance at 785 nm),B (70%: Minimum value of transmittance at wavelength of 500 to 600 nm<80%),0.12,855,0.11,863
COB(OC)n1c(-c2ccccc2-c2ccccc2)c2/c(=C(\C#N)c3nc4ccc(Cl)cc4o3)n(B(OC)OC)c(-c3ccccc3-c3ccccc3)c2/c1=C(\C#N)c1nc2ccc(Cl)cc2o1 [Compound D-5],0.14,790,–,–,B (10%<Transmittance at 785 nm≦25%),C (60%: Minimum value of transmittance at wavelength of 500 to 600 nm<70%),0.15,780,–,–
